Key:
Assay in all cases: Premier Screen kinase activity screening (33P ATP filter binding)
Assay type in all cases: biochemical
Details in all cases: 10 μM SCO-101, mean of assay duplicates, read-out: Kinase activity (percentage of DMSO control)
FGF-R1 = molecular target: T1, FGF-R1 (Homo sapiens, UniProt P11362)
T1 construct: purchased MRC in Dundee (Premier Screen service)
Description: (§1) The kinase activity screening was done at MRC in Dundee. The screen was a so-called “Premier Screen” with 140 kinases. More specific information can be found here: http://www.kinase-screen.mrc.ac.uk/services/premier-screen
(§2) The method is based on a radioactive filter binding assay using 33P ATP (Hastie, et al 2006. Nat Protoc. 2006; 1(2):968-71; Bain, et al 2007. Biochem J. 2007 Dec. 15; 408(3):297-315). This method is sensitive, accurate and provides a direct measure of kinase enzyme activity. A concentration of 10 μM SCO-101 was used.
(§3) In the table below, the data is portrayed as the mean percentage activity of assay duplicates and a standard deviation. These percentage activities were calculated in comparison to DMSO controls. 10 μM SCO-101 reduced the activity of SRPK1 to 6% of the DMSO control.

EPH-A2 = molecular target: T2, EPH-A2 (Homo sapiens, UniProt P29317)
T2 construct: purchased MRC in Dundee (Premier Screen service)
Description: as §1, §2, §3

EPH-B1 = molecular target: T3, EPH-B1 (Homo sapiens, UniProt P54762)
T3 construct: purchased MRC in Dundee (Premier Screen service)
Description: as §1, §2, §3

CK1δ = molecular target: T4, CK1δ (Homo sapiens, UniProt P48730)
T4 construct: purchased MRC Dundee, Premier Screen (contract screening service)
Description: as §1, §2, §3

MNK1 = molecular target: T5, MNK1 (Homo sapiens, UniProt Q9BUB5)
T5 construct: MRC in Dundee (screening service)
Description: as §1, §2, §3

Aurora B = molecular target: T6, Aurora B (Homo sapiens, UniProt Q96GD4)
T6 construct: purchased MRC in Dundee (Premier Screen service)
Description: as §1, §2, §3

EPH-B4 = molecular target: T7, EPH-B4 (Homo sapiens, UniProt P54760)
T7 construct: MRC in Dundee (screening service)
Description: as §1, §2, §3

SIK3 = molecular target: T8, SIK3 (Homo sapiens, UniProt Q9Y2K2)
T8 construct: purchased MRC in Dundee (Premier Screen service)
Description: as §1, §2, §3

PDGFRA = molecular target: T9, PDGFRA (Homo sapiens, UniProt P16234)
T9 construct: purchased MRC in Dundee (Premier Screen service)
Description: as §1, §2, §3

MARK2 = molecular target: T10, MARK2 (Homo sapiens, UniProt Q7KZI7)
T10 construct: MRC Dundee (screening service)
Description: as §1, §2, §3

TTBK1 = molecular target: T11, TTBK1 (Homo sapiens, UniProt Q5TCY1)
T11 construct: MRC in Dundee (screening service)
Description: as §1, §2, §3

DYRK2 = molecular target: T12, DYRK2 (Homo sapiens, UniProt Q92630)
T12 construct: purchased MRC in Dundee (Premier Screen service)
Description: as §1, §2, §3

p38d MAPK = p38d MAPK (Homo sapiens, UniProt O15264)
Description: as §1, §2, §3

OSR1 = molecular target: T13, OSR1 (Homo sapiens, UniProt O95747)
T13 construct: MRC in Dundee (screening service)
Description: as §1, §2, §3

p38a MAPK = molecular target: T14, p38a MAPK (Homo sapiens, UniProt Q16539)
T14 construct: purchased MRC in Dundee (Premier Screen service)
Description: as §1, §2, §3

PIM1 = molecular target: T15, PIM1 (Homo sapiens, UniProt P11309)
T15 construct: purchased MRC in Dundee (Premier Screen service)
Description: as §1, §2, §3

NUAK1 = molecular target: T16, NUAK1 (Homo sapiens, UniProt O60285)
T16 construct: purchased MRC in Dundee (Premier Screen service)
Description: as §1, §2, §3

p38b MAPK = p38b MAPK (Homo sapiens, UniProt Q15759)
Description: as §1, §2, §3

DDR2 = molecular target: T17, DDR2 (Homo sapiens, UniProt Q16832)
T17 construct: purchased MRC in Dundee (Premier Screen service)
Description: as §1, §2, §3

MAP4K5 = molecular target: T18, MAP4K5 (Homo sapiens, UniProt Q9Y4K4)
T18 construct: purchased MRC Dundee, Premier Screen (contract screening service)
Description: as §1, §2, §3

DYRK1A = molecular target: T19, DYRK1A (Homo sapiens, UniProt Q13627)
T19 construct: purchased MRC Dundee, Premier Screen (contract screening service)
Description: as §1, §2, §3

TrkA = molecular target: T20, TrkA (Homo sapiens, UniProt P04629)
T20 construct: purchased MRC in Dundee (Premier Screen service)
Description: as §1, §2, §3

GSK3b = molecular target: T21, GSK3b (Homo sapiens, UniProt P49841)
T21 construct: MRC Dundee (screening service)
Description: as §1, §2, §3

PRK2 = PRK2 (Homo sapiens, UniProt Q16513)
Description: as §1, §2, §3

PKD1 = PKD1 (Homo sapiens, UniProt Q15139)
Description: as §1, §2, §3

PKCγ = molecular target: T22, PKCγ (Homo sapiens, UniProt P05129)
T22 construct: MRC Dundee (screening service)
Description: as §1, §2, §3

RSK1 = molecular target: T23, RSK1 (Homo sapiens, UniProt Q15418)
T23 construct: MRC Dundee (screening service)
Description: as §1, §2, §3

MEKK1 = molecular target: T24, MEKK1 (Homo sapiens, UniProt Q13233)
T24 construct: purchased MRC Dundee, Premier Screen (contract screening service)
Description: as §1, §2, §3

DAPK1 = DAPK1 (Homo sapiens, UniProt P53355)
Description: as §1, §2, §3

Lck = molecular target: T25, Lck (Homo sapiens, UniProt P06239)
T25 construct: purchased MRC Dundee, Premier Screen (contract screening service)
Description: as §1, §2, §3

MAP4K3 = MAP4K3 (Homo sapiens, UniProt Q8IVH8)
Description: as §1, §2, §3

ERK8 = molecular target: T26, ERK8 (Homo sapiens, UniProt Q8TD08)
T26 construct: MRC in Dundee (screening service)
Description: as §1, §2, §3

STK33 = molecular target: T27, STK33 (Homo sapiens, UniProt Q9BYT3)
T27 construct: MRC Dundee (screening service)
Description: as §1, §2, §3

HIPK3 = HIPK3 (Homo sapiens, UniProt Q9H422)
Description: as §1, §2, §3

S6K1 = molecular target: T28, S6K1 (Homo sapiens, UniProt P23443)
T28 construct: MRC in Dundee (screening service)
Description: as §1, §2, §3

T26 sequence (Q8TD08 whole entry, species assumed): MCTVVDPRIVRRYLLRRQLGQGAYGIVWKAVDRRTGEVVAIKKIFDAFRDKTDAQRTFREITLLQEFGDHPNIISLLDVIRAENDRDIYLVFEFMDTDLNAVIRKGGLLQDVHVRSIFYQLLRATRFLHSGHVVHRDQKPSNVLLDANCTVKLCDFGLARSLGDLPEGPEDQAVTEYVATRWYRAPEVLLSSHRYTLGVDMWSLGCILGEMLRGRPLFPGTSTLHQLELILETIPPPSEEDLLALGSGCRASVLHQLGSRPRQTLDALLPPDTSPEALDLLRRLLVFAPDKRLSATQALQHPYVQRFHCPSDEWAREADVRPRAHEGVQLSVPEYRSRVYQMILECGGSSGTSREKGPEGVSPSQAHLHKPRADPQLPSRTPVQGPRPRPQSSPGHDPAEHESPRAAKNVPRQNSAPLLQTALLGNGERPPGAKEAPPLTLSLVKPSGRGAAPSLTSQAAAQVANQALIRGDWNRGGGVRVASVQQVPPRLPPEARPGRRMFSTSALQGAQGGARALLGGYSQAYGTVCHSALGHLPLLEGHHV
T27 sequence (Q9BYT3 whole entry, species assumed): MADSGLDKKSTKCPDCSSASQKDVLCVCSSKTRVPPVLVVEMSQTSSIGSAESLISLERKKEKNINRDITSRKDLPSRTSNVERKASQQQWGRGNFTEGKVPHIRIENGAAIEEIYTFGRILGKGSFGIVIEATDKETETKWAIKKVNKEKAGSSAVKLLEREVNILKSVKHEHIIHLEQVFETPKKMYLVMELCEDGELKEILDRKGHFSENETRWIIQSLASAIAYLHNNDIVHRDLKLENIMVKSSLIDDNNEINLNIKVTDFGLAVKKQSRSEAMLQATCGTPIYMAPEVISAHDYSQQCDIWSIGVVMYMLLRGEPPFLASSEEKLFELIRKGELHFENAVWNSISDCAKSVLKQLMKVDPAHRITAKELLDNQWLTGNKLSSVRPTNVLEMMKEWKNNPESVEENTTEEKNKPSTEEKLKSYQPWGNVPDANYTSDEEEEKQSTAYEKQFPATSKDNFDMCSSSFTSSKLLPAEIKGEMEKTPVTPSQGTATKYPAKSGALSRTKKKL
HIPK3, sequence (Q9H422 whole entry, species assumed): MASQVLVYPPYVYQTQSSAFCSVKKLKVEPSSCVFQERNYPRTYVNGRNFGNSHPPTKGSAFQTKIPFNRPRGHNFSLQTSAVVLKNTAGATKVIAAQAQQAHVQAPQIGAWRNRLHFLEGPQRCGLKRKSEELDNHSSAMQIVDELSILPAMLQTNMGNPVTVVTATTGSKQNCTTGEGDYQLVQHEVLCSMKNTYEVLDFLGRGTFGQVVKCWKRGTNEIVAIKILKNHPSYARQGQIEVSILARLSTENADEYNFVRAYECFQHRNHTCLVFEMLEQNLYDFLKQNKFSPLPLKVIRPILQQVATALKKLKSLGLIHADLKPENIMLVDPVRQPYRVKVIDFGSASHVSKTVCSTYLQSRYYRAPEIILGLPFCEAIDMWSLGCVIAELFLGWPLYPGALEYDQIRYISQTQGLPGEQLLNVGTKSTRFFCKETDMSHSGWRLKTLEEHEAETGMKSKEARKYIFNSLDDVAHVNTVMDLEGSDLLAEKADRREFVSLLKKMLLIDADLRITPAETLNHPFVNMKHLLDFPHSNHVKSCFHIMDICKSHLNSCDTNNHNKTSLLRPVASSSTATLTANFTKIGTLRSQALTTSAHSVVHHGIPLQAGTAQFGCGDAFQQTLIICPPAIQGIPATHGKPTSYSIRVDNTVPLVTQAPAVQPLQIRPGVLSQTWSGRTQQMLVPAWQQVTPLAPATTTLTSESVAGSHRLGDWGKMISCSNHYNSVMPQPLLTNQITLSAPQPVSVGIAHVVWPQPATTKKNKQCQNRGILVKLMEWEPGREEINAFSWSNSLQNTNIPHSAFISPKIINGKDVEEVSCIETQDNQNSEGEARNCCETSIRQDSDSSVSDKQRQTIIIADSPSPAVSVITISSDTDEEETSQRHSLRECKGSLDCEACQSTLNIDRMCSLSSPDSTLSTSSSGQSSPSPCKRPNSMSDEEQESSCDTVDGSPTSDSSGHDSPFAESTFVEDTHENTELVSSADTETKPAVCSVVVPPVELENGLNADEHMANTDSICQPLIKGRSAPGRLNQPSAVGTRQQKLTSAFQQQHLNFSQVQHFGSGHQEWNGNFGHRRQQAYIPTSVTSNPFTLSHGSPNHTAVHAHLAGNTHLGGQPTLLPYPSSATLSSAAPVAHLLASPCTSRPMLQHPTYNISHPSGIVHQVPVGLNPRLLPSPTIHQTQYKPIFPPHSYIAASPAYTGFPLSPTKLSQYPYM
T1 sequence (P11362 22-822, species assumed): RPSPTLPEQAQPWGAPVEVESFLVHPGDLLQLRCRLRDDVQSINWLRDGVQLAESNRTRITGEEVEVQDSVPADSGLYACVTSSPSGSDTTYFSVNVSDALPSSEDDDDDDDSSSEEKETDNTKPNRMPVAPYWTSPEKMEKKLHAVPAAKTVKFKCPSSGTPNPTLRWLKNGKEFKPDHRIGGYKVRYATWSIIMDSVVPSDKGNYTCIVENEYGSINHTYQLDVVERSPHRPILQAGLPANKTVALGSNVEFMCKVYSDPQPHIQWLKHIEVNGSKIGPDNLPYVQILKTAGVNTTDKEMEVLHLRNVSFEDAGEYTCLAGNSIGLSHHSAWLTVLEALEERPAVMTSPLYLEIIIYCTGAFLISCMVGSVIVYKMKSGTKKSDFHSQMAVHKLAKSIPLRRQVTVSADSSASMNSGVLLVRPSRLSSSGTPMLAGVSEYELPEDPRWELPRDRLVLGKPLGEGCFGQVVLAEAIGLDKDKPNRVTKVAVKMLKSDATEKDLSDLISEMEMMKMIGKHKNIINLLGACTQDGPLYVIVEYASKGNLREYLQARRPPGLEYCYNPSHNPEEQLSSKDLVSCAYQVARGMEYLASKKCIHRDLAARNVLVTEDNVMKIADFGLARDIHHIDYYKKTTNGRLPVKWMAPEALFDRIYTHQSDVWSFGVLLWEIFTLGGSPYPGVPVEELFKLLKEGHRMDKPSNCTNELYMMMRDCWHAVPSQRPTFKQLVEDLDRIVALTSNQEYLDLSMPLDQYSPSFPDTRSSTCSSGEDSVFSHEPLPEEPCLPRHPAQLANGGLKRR
T25 sequence (P06239 whole entry, species assumed): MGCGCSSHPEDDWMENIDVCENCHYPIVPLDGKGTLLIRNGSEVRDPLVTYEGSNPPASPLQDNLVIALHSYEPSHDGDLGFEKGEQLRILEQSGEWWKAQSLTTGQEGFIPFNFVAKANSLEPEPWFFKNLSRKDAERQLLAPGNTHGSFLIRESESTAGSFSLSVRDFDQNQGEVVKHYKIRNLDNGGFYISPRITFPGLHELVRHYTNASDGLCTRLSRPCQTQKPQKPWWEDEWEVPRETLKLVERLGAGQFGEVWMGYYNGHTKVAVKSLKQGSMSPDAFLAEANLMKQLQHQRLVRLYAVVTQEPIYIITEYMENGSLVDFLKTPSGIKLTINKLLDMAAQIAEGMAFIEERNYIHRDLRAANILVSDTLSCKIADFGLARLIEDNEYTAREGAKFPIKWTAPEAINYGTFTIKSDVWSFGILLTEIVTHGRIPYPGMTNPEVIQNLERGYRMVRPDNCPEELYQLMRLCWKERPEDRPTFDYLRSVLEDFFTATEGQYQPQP
DAPK1, sequence (P53355 whole entry, species assumed): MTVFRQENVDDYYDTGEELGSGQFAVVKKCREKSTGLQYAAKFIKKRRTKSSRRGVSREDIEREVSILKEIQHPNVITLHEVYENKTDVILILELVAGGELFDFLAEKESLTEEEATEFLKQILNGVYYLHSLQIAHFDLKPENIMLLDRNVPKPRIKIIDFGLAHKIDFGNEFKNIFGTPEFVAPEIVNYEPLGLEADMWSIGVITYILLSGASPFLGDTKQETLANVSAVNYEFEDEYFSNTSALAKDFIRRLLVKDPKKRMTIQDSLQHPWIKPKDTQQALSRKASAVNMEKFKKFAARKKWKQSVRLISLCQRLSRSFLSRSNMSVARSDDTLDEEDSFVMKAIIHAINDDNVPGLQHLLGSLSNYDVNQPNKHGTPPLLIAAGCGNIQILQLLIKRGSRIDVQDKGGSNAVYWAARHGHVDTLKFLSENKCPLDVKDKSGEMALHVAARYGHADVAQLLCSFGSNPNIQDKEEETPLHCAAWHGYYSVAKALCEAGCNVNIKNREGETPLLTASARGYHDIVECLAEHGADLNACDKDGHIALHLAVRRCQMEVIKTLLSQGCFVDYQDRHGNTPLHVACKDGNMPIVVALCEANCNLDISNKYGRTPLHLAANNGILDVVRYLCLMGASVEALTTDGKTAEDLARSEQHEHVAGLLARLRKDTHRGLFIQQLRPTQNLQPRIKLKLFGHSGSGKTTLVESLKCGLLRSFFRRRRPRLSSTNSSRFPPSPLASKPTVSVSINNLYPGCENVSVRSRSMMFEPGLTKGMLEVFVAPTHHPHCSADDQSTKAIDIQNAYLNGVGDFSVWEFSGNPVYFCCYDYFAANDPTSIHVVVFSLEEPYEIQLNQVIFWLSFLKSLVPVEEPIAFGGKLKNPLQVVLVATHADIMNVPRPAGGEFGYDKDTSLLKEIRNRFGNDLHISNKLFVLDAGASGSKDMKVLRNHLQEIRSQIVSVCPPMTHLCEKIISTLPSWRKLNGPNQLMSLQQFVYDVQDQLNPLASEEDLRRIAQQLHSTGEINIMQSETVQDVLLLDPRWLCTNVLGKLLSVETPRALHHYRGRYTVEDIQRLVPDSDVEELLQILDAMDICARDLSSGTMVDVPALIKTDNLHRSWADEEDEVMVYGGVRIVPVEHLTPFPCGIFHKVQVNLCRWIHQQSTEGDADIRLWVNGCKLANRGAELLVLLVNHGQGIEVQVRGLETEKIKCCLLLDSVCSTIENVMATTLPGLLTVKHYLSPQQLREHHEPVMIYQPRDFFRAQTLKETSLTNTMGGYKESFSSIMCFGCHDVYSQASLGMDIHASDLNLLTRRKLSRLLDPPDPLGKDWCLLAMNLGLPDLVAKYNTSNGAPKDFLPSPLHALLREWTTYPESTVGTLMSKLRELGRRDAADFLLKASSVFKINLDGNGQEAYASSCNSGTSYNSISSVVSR

**Q.** With O=C(Nc1cc(C(F)(F)F)cc(C(F)(F)F)c1)Nc1ccc(Br)cc1-c1nnn[nH]1 [SCO-101] as the compound, how does the remaining activity at 10 µM (FGF-R1) read?
**A.** The remaining activity at 10 µM was 123%.

**Q.** What about the remaining activity at 10 µM (EPH-A2) of the same compound?
**A.** The remaining activity at 10 µM was 60%.

**Q.** And the remaining activity at 10 µM (EPH-B1)?
**A.** Its remaining activity at 10 µM is 124%.

**Q.** What about the remaining activity at 10 µM (CK1δ) of the same compound?
**A.** The remaining activity at 10 µM was 107%.

**Q.** And the remaining activity at 10 µM (MNK1)?
**A.** Its remaining activity at 10 µM is 91%.

**Q.** And the remaining activity at 10 µM (Aurora B)?
**A.** Its remaining activity at 10 µM is 61%.

**Q.** And the remaining activity at 10 µM (EPH-B4)?
**A.** The remaining activity at 10 µM was 86%.

**Q.** And the remaining activity at 10 µM (SIK3)?
**A.** The remaining activity at 10 µM was 39%.

**Q.** What about the remaining activity at 10 µM (PDGFRA) of the same compound?
**A.** The remaining activity at 10 µM was 62%.

**Q.** What about the remaining activity at 10 µM (MARK2) of the same compound?
**A.** Its remaining activity at 10 µM is 100%.

**Q.** And the remaining activity at 10 µM (TTBK1)?
**A.** The remaining activity at 10 µM was 94%.

**Q.** What about the remaining activity at 10 µM (DYRK2) of the same compound?
**A.** The remaining activity at 10 µM was 78%.

**Q.** What about the remaining activity at 10 µM (p38d MAPK) of the same compound?
**A.** The remaining activity at 10 µM was 113%.

**Q.** What about the remaining activity at 10 µM (OSR1) of the same compound?
**A.** The remaining activity at 10 µM was 94%.

**Q.** And the remaining activity at 10 µM (p38a MAPK)?
**A.** Its remaining activity at 10 µM is 63%.

**Q.** What about the remaining activity at 10 µM (PIM1) of the same compound?
**A.** Its remaining activity at 10 µM is 61%.

**Q.** And the remaining activity at 10 µM (NUAK1)?
**A.** The remaining activity at 10 µM was 49%.

**Q.** What about the remaining activity at 10 µM (p38b MAPK) of the same compound?
**A.** The remaining activity at 10 µM was 115%.

**Q.** And the remaining activity at 10 µM (DDR2)?
**A.** Its remaining activity at 10 µM is 68%.

**Q.** What about the remaining activity at 10 µM (MAP4K5) of the same compound?
**A.** Its remaining activity at 10 µM is 108%.

**Q.** And the remaining activity at 10 µM (DYRK1A)?
**A.** Its remaining activity at 10 µM is 112%.

**Q.** And the remaining activity at 10 µM (TrkA)?
**A.** The remaining activity at 10 µM was 25%.

**Q.** And the remaining activity at 10 µM (GSK3b)?
**A.** Its remaining activity at 10 µM is 99%.

**Q.** What about the remaining activity at 10 µM (PRK2) of the same compound?
**A.** Its remaining activity at 10 µM is 120%.

**Q.** And the remaining activity at 10 µM (PKD1)?
**A.** The remaining activity at 10 µM was 122%.

**Q.** And the remaining activity at 10 µM (PKCγ)?
**A.** The remaining activity at 10 µM was 97%.

**Q.** What about the remaining activity at 10 µM (RSK1) of the same compound?
**A.** Its remaining activity at 10 µM is 100%.

**Q.** And the remaining activity at 10 µM (MEKK1)?
**A.** The remaining activity at 10 µM was 105%.

**Q.** And the remaining activity at 10 µM (DAPK1)?
**A.** The remaining activity at 10 µM was 112%.

**Q.** What about the remaining activity at 10 µM (Lck) of the same compound?
**A.** The remaining activity at 10 µM was 103%.

**Q.** What about the remaining activity at 10 µM (MAP4K3) of the same compound?
**A.** Its remaining activity at 10 µM is 113%.

**Q.** And the remaining activity at 10 µM (ERK8)?
**A.** The remaining activity at 10 µM was 93%.

**Q.** And the remaining activity at 10 µM (STK33)?
**A.** Its remaining activity at 10 µM is 100%.

**Q.** What about the remaining activity at 10 µM (HIPK3) of the same compound?
**A.** Its remaining activity at 10 µM is 121%.

**Q.** And the remaining activity at 10 µM (S6K1)?
**A.** Its remaining activity at 10 µM is 92%.

Source: patent publication US20210251963A1, “UREA DERIVATIVES FOR USE IN THE TREATMENT OF SUBJECTS WITH ELEVATED EXPRESSION AND/OR ACTIVITY OF SRPK1” (Scandion Oncology A/S, priority 2018, published 2021)
